Targets include CAMKK2 (Homo sapiens, UniProt Q96RR4); CHEK1 (Homo sapiens, UniProt O14757); DAPK1 (Homo sapiens, UniProt P53355); EPHA8 (Homo sapiens, UniProt P29322); EPHB1 (Homo sapiens, UniProt P54762); MAK (Homo sapiens, UniProt P20794); MAP3K15 (Homo sapiens, UniProt Q6ZN16); MAST1 (Homo sapiens, UniProt Q9Y2H9); PIK3CA (Homo sapiens, UniProt P42336); BTK (Homo sapiens, UniProt Q06187); EGFR(T790M) (Homo sapiens, UniProt P00533, T790M); FLT3(ITD) (Homo sapiens, UniProt P36888, ITD); FGFR3(G697C) (Homo sapiens, UniProt P22607, G697C).

Experiment in all cases: biochemical
Common to all, as to set-up: KINOMEscan scanMAX competition binding, DNA-tagged kinases, qPCR read-out, percent control at 300 nM

In the next assay the target is T1, CTK (Homo sapiens, UniProt P42679).
T1 construct: gene MATK

The next assay addresses T2, MKK7 (Homo sapiens, UniProt O14733).
T2 construct: gene MAP2K7

Another assay concerns the target T3, PKAC-beta (Homo sapiens, UniProt P22694).
T3 construct: gene PRKACB

The next assay addresses T4, HUNK (Homo sapiens, UniProt P57058).
T4 sequence (P57058 1-714): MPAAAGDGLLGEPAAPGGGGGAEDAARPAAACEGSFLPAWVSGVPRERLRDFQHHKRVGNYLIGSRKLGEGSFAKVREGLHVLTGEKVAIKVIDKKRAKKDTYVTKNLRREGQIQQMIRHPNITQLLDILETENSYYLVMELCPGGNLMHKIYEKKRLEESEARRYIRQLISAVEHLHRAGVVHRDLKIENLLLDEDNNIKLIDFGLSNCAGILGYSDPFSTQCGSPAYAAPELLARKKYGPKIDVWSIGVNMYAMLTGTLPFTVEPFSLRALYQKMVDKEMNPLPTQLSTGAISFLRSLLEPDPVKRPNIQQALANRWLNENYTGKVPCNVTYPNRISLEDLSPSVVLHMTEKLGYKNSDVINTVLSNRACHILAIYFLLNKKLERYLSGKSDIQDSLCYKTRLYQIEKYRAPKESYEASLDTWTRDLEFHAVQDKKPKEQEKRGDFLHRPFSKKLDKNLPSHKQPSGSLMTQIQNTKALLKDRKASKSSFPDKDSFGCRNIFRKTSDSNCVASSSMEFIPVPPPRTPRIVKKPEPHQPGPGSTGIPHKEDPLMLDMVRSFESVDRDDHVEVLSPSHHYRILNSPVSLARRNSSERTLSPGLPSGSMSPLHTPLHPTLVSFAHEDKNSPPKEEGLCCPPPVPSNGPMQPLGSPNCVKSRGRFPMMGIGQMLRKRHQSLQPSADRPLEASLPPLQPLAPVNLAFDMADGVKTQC

Assay [1] concerns the target T5, ABL1(H396P)-nonphosphorylated (Homo sapiens, UniProt P00519, H396P).
T5 construct: nonphosphorylated

Where [2] appears, read: read-out: Percent control / Zanubrutinib.
The mark [3] stands for this setting: read-out: Percent control / Tirabrutinib.
Setting [4] is: read-out: Percent control / Ibrutinib.
Setting [5] is: read-out: Percent control / Acalabrutinib.

Like-named read-outs stand apart in the source and are kept apart here.

T1 sequence (P42679 whole entry): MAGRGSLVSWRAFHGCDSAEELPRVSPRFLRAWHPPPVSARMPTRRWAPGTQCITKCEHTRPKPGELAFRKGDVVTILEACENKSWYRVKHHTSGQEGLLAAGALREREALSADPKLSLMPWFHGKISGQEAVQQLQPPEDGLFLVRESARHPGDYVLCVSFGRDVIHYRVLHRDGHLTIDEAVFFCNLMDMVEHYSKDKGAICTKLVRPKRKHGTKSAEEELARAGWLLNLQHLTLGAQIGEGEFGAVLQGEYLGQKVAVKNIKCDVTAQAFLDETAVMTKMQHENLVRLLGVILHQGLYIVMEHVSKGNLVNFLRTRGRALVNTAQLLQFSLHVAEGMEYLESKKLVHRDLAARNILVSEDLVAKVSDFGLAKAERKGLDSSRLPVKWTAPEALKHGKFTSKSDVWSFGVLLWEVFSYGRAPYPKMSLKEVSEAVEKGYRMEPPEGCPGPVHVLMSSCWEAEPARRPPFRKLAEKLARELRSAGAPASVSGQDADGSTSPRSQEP
Chain of CAMKK2 (Q96RR4 whole entry): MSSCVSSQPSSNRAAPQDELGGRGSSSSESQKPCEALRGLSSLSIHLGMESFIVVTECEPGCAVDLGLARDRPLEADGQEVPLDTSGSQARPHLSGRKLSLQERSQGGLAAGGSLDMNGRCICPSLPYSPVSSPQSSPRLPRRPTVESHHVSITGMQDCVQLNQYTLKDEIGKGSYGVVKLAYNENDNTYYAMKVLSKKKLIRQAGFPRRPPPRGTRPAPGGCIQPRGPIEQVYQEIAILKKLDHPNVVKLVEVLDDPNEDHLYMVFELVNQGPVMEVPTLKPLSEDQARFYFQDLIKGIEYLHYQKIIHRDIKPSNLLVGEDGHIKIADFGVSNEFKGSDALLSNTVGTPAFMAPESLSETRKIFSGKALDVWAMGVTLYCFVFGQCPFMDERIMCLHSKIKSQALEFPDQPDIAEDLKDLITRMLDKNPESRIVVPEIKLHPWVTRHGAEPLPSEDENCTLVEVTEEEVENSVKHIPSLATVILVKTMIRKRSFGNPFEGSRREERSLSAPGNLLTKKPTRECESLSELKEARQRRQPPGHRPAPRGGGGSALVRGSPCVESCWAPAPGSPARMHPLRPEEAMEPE
Chain of EGFR(T790M) (P00533 whole entry T790M): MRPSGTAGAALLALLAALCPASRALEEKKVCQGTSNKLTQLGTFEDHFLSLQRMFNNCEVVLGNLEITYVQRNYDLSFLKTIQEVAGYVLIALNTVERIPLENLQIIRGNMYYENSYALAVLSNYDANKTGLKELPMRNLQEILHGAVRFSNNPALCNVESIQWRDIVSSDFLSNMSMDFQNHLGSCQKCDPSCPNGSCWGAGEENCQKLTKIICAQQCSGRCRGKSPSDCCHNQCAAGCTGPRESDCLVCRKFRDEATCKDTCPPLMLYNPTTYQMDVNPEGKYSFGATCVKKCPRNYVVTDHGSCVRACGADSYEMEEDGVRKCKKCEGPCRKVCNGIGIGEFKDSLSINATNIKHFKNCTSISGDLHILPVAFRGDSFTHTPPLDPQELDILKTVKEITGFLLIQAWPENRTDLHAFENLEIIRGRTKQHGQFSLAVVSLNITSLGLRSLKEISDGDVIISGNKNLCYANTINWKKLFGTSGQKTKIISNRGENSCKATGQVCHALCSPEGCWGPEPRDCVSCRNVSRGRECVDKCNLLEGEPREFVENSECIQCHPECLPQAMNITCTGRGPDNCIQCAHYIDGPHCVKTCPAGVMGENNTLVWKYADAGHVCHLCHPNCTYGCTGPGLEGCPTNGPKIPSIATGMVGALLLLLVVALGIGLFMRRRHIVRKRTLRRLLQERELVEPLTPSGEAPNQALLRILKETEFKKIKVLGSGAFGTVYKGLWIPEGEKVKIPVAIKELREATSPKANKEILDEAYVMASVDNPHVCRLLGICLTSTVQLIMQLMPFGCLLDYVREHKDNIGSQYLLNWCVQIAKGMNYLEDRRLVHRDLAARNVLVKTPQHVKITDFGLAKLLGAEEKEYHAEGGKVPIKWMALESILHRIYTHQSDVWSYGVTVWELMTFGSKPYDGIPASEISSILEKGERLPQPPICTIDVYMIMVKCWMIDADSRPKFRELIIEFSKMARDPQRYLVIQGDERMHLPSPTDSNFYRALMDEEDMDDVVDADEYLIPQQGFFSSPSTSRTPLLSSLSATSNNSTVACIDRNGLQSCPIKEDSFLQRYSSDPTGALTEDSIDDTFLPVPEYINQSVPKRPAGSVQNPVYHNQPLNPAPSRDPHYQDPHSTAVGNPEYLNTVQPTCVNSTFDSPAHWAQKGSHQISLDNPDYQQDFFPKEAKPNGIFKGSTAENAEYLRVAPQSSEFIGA
Chain of DAPK1 (P53355 whole entry): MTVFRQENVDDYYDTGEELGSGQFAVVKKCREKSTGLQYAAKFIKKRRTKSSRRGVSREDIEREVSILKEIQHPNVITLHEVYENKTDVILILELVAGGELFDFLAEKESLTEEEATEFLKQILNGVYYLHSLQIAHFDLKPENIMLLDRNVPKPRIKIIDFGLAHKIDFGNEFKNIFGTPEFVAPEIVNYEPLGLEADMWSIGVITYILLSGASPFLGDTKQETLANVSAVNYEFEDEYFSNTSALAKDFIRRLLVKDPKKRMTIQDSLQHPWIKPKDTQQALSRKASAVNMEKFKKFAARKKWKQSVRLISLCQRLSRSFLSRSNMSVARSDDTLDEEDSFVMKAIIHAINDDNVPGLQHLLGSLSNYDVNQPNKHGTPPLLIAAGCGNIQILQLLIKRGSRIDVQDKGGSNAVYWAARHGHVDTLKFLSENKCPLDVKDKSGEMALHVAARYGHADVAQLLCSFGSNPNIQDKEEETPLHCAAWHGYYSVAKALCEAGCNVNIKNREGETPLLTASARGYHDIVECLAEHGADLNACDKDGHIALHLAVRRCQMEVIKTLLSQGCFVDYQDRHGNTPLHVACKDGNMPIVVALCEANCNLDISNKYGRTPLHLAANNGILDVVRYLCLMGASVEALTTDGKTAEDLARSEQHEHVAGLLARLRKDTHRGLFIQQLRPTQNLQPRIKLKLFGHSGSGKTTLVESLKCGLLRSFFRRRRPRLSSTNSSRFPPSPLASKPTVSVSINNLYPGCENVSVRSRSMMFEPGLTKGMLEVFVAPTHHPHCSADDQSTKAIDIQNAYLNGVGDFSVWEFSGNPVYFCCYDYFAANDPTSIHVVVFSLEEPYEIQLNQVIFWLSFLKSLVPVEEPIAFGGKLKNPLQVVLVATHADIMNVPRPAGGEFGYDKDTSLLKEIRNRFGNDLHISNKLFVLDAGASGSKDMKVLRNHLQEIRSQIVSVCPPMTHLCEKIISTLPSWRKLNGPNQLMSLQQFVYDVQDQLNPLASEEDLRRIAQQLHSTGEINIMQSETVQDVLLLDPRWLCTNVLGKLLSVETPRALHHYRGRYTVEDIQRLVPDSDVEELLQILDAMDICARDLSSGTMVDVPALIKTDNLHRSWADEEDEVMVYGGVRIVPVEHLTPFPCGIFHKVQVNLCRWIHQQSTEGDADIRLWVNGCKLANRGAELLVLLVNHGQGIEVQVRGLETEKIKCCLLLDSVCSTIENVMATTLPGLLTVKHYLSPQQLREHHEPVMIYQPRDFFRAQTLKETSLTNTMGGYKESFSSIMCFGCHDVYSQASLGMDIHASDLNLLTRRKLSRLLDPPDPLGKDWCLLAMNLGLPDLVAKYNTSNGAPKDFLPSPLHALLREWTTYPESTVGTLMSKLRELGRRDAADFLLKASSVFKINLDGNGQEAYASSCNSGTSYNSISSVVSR
Chain of EPHA8 (P29322 whole entry): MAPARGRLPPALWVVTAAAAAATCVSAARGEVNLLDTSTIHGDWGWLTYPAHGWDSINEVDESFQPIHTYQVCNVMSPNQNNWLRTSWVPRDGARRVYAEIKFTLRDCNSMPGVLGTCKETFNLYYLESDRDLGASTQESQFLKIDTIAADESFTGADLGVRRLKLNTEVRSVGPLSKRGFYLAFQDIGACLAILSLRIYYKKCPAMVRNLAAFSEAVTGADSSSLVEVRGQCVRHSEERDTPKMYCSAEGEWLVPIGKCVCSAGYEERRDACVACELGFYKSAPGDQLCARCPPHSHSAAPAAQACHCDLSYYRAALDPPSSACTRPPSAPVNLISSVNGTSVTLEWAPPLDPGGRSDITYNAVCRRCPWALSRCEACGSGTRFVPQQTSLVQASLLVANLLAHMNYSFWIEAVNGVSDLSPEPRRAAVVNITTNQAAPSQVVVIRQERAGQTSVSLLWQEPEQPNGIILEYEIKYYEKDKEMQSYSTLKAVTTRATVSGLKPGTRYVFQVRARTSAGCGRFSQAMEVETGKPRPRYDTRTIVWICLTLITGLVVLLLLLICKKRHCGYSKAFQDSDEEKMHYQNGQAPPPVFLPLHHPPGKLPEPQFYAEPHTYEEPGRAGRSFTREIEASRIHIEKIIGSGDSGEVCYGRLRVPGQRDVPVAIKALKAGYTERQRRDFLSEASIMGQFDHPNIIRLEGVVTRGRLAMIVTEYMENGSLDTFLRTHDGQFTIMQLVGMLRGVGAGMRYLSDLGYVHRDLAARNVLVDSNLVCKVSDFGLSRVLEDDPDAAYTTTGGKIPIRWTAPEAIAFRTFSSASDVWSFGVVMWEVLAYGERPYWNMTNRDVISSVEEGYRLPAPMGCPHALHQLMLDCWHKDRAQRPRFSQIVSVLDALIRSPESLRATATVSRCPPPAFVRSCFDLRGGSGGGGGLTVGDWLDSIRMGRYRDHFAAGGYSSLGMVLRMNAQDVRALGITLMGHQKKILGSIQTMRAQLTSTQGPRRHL

`C=CC(=O)N1CCC([C@@H]2CCNc3c(C(N)=O)c(-c4ccc(Oc5ccccc5)cc4)nn32)CC1` [Zanubrutinib]: the remaining binding at 0.3 µM at CAMKK2 (setting [2]) was 87%; at CHEK1 (setting [2]), 92%; on CTK (setting [2]) it was 98%; on DAPK1 (setting [2]), 87%; on EPHA8 (setting [2]), 90%; on EPHB1 (setting [2]) it was 96%. The remaining binding at 0.3 µM on MAK (setting [2]) worked out at 100%; at MAP3K15 (setting [2]), 54%; on MAST1 (setting [2]), 100%; on MKK7 (setting [2]), 80%; on PIK3CA (setting [2]) it was 57%; at PKAC-beta (setting [2]), 82%.
In the case of `CC#CC(=O)N1CC[C@@H](n2c(=O)n(-c3ccc(Oc4ccccc4)cc3)c3c(N)ncnc32)C1` [Tirabrutinib], the remaining binding at 0.3 µM was determined as 3% at BTK (setting [3]); 75% on EGFR(T790M) (setting [3]); 82% on FLT3(ITD) (setting [3]); 11% on HUNK (setting [3]); 94% at MAK (setting [3]).
For the molecule `C=CC(=O)N1CCC[C@@H](n2nc(-c3ccc(Oc4ccccc4)cc3)c3c(N)ncnc32)C1` [Ibrutinib], the remaining binding at 0.3 µM in assay [1] (setting [4]) came out at 31%; on FGFR3(G697C) (setting [4]) it was 77%; at HUNK (setting [4]) it was 9%; at MAP3K15 (setting [4]) it was 96%; at MKK7 (setting [4]), 8.1%; on PKAC-beta (setting [4]), 85%.
In the case of `CC#CC(=O)N1CCC[C@H]1c1nc(-c2ccc(C(=O)Nc3ccccn3)cc2)c2c(N)nccn12` [Acalabrutinib], the remaining binding at 0.3 µM in assay [1] (setting [5]) was found to be 85%; on BTK (setting [5]), 0.3%; at CAMKK2 (setting [5]) it was 97%; at CHEK1 (setting [5]), 88%; on CTK (setting [5]), 97%; at DAPK1 (setting [5]) it was 94%. Besides, the remaining binding at 0.3 µM was 93% on EGFR(T790M) (setting [5]); 96% on EPHA8 (setting [5]); 93% on EPHB1 (setting [5]); 79% at FGFR3(G697C) (setting [5]); 85% on FLT3(ITD) (setting [5]); 87% at MAST1 (setting [5]). In addition, the remaining binding at 0.3 µM on PIK3CA (setting [5]) was found to be 97%.

These data come from PMC10004634 (PLOS ONE, 2023).
